The text below walks through data of US20230064809A1, “SUBSTITUTED AMINOQUINOLONES AS DGKALPHA INHIBITORS FOR IMMUNE ACTIVATION” (Bayer Aktiengesellschaft, priority 2019, published 2023).

Molecules are shown by their SMILES.

DGKα, sequence (P23743 with tags, fused parts or gaps): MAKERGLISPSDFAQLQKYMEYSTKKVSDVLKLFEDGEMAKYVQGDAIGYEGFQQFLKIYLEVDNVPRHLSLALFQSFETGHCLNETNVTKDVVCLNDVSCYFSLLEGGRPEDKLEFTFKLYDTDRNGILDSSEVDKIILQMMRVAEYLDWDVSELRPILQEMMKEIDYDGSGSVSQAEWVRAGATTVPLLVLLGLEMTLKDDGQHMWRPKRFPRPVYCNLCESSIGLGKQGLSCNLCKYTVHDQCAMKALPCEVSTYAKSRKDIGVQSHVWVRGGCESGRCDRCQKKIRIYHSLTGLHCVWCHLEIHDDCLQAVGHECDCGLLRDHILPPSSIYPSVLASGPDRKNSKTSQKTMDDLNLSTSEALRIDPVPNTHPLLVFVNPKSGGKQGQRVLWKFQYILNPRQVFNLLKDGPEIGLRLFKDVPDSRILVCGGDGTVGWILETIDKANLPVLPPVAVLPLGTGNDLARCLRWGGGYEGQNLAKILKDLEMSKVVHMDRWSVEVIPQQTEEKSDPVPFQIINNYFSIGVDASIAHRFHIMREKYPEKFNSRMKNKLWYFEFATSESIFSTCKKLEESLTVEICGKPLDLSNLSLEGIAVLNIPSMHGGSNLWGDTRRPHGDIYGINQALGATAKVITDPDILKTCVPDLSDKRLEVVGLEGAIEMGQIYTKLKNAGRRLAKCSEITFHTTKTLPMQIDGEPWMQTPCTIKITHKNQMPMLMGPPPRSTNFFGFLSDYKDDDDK

The target in the assay is DGKα (Homo sapiens, UniProt P23743). The assay can be described thus: Human DGKα kinase activity inhibition assay (ADP-Glo). It is filed as biochemical. Details: made in house; host or cells: Sf9 insect cells, baculovirus. The note with it: in vitro, C-terminally FLAG-tagged recombinant full-length human DGKα, 1,2-dioleoyl-sn-glycerol substrate, ADP-Glo readout. How it is done:
Human DGKα Kinase Activity Inhibition Assay. Human DGKα inhibitory activity of compounds of the present invention was quantified employing the human DGKα kinase activity assay as described in the following paragraphs. In essence, the enzyme activity was measured by quantification of the adenosine-di-phosphate (ADP) generated as a co-product of the enzyme reaction via the “ADP-Glo™ Kinase Assay” kit from the company Promega. This detection system works as follows: In a first step the ATP not consumed in the kinase reaction is quantitatively converted to […] (“ADP-Glo-reagent”), then the adenylate cyclase is stopped and the ADP generated in the kinase reaction converted to ATP, which subsequently generates in a luciferase-based reaction a glow-luminescence signal (“Kinase Detection Reagent”). C-terminally FLAG-tagged, recombinant full-length human DGKα (expressed in baculovirus infected insect cells, purified using anti-Flag pulldown and size exclusion chromatography as described below, DGKa_hu_1) was used as enzyme. As substrate for the kinase 1,2-dioleoyl-sn-glycerol, reconstituted in octyl-β-D-glucopyranoside micelles, was used. For the preparation of the micelles, 1 volume of a 16.1 mM solution of 1,2-dioleoyl-sn-glycerol (Avanti, Cat. #08001-25G) in chloroform was slowly evaporated using a nitrogen stream. Subsequently, 22.55 volumes of a 510 mM solution of octyl-β-D-glucopyranoside (Sigma-Aldrich, Cat. #08001-10G) in 50 mM MOPS buffer (pH 7.4) were added, and the mixture was sonicated in an ultrasonic bath for 20 s. Then 35 volumes of 50 mM MOPS buffer (pH 7.4) were added to yield a solution of 0.28 mM 1,2 dioleoyl-sn-glycerol and 200 mM octyl-β-D-glucopyranoside, which was aliquoted, flash-frozen in liquid nitrogen, and stored at −20° C. until use. For each experiment, a fresh aliquot was quickly thawed and diluted 24-fold with aqueous assay buffer (described below) containing 95.7 μM adenosine triphosphate (Promega) to yield a 1.67-fold concentrated substrate solution. For the assay 50 nl of a 100-fold concentrated solution of the test compound in dimethyl sulfoxide (DMSO, Sigma) was pipetted into either a white 1536-well or a white low-volume 384-well microtiter plate (both Greiner Bio-One, Frickenhausen, Germany). […] The concentration of DGK a was adjusted depending of the activity of the enzyme lot and was chosen appropriate to have the assay in the linear range, a typical concentration is about 0.1 nM. The reaction was stopped by the addition of 2.5 μl of “ADP-Glo-reagent” (1 to 1.5 diluted with water) and the resulting mixture was incubated at 22° C. for 1 h to convert the ATP no t consumed in the kinase reaction completely to […]. […] The amount of emitted light was taken as a measure for the amount of ADP generated and thereby for the activity of the DGKα.
For orientation: ADP-Glo first removes unused ATP, then detects ADP through luciferase.
One may read the IC50 as the point on the concentration scale where inhibition reaches its midpoint. In the case of `Cn1c(=O)c(C#N)c(N2CCC3(CCN(c4ccccc4)C3)CC2)c2ccccc21` [Example 1, 1-methyl-2-oxo-4-(2-phenyl-2,8-diazaspiro[4.5]decan-8-yl)-1,2-dihydroquinoline-3-carbonitrile], the IC50 was 34 nM.

As to `Cn1c(=O)c(C#N)c(N2CCC3(CCN(c4ccc(F)cc4)C3)CC2)c2ccccc21` [Example 2, 4-[2-(4-fluorophenyl)-2,8-diazaspiro[4.5]decan-8-yl]-1-methyl-2-oxo-1,2-dihydroquinoline-3-carbonitrile], the IC50 stood at 38 nM.

As to `Cn1c(=O)c(C#N)c(N2CCC3(CCN(c4ccc(F)c(F)c4)C3)CC2)c2ccccc21` [Example 3, 4-[2-(3,4-difluorophenyl)-2,8-diazaspiro[4.5]decan-8-yl]-1-methyl-2-oxo-1,2-dihydro-quinoline-3-carbonitrile], the IC50 was determined as 39 nM.

`Cn1c(=O)c(C#N)c(N2CCC3(CN(c4ccc(F)cc4)C3)C2)c2ccccc21` [Example 4, 4-[2-(4-fluorophenyl)-2,6-diazaspiro[3.4]octan-6-yl]-1-methyl-2-oxo-1,2-dihydroquinoline-3-carbonitrile]: the IC50 is 35 nM.

`COc1ccc(N2CC3(CCN(c4c(C#N)c(=O)n(C)c5ccccc45)C3)C2)cc1` [Example 5, 4-[2-(4-methoxyphenyl)-2,6-diazaspiro[3.4]octan-6-yl]-1-methyl-2-oxo-1,2-dihydro-quinoline-3-carbonitrile]: the IC50 is 103 nM.

In the case of `Cn1c(=O)c(C#N)c(N2CCC3(CN(c4ccc(Cl)cc4)C3)C2)c2ccccc21` [Example 6, 4-[2-(4-chlorophenyl)-2,6-diazaspiro[3.4]octan-6-yl]-1-methyl-2-oxo-1,2-dihydroquinoline-3-carbonitrile], the IC50 turned out to be 10 nM.

For `Cn1c(=O)c(C#N)c(N2CC3(CCN(c4ccc(F)cc4)C3)C2)c2ccccc21` [Example 7, 4-[6-(4-fluorophenyl)-2,6-diazaspiro[3.4]octan-2-yl]-1-methyl-2-oxo-1,2-dihydroquinoline-3-carbonitrile], the IC50 was found to be 63 nM.

As for `Cn1c(=O)c(C#N)c(N2CCC3(CCN(c4ccc(OC(F)(F)F)cc4)C3)CC2)c2ccccc21` [Example 8, 1-methyl-2-oxo-4-{2-[4-(trifluoromethoxy)phenyl]-2,8-diazaspiro[4.5]decan-8-yl}-1,2-dihydroquinoline-3-carbonitrile], the IC50 is 17 nM.

Take `COc1cccc(N2CCC3(CCN(c4c(C#N)c(=O)n(C)c5ccccc45)CC3)C2)c1` [Example 9, 4-[2-(3-methoxyphenyl)-2,8-diazaspiro[4.5]decan-8-yl]-1-methyl-2-oxo-1,2-dihydro-quinoline-3-carbonitrile]: the IC50 was 11 nM.

Consider `COc1ccccc1N1CCC2(CCN(c3c(C#N)c(=O)n(C)c4ccccc34)CC2)C1` [Example 10, 4-[2-(2-methoxyphenyl)-2,8-diazaspiro[4.5]decan-8-yl]-1-methyl-2-oxo-1,2-dihydro-quinoline-3-carbonitrile], for which the IC50 turned out to be 18 nM.

As to `CN(C)c1cccc(N2CCC3(CCN(c4c(C#N)c(=O)n(C)c5ccccc45)CC3)C2)c1` [Example 11, 4-{2-[3-(dimethylamino)phenyl]-2,8-diazaspiro[4.5]decan-8-yl}-1-methyl-2-oxo-1,2-dihydroquinoline-3-carbonitrile], the IC50 was determined as 28 nM.

`Cn1c(=O)c(C#N)c(N2CCC3(CCN(c4cccc(OC(F)(F)F)c4)C3)CC2)c2ccccc21` [Example 12, 1-methyl-2-oxo-4-{2-[3-(trifluoromethoxy)phenyl]-2,8-diazaspiro[4.5]decan-8-yl}-1,2-dihydroquinoline-3-carbonitrile]: the IC50 stood at 50 nM.

`CN(C)c1ccccc1N1CCC2(CCN(c3c(C#N)c(=O)n(C)c4ccccc34)CC2)C1` [Example 13, 4-{2-[2-(dimethylamino)phenyl]-2,8-diazaspiro[4.5]decan-8-yl}-1-methyl-2-oxo-1,2-dihydroquinoline-3-carbonitrile]: the concentration for half-maximal inhibition (IC50) worked out at 51 nM.

On to `Cn1c(=O)c(C#N)c(N2CCC3(CCN(c4ccccc4OC(F)(F)F)C3)CC2)c2ccccc21` [Example 14, 1-methyl-2-oxo-4-{2-[2-(trifluoromethoxy)phenyl]-2,8-diazaspiro[4.5]decan-8-yl}-1,2-dihydroquinoline-3-carbonitrile], for which the IC50 was found to be 61 nM.

`COc1ccc(N2CCC3(CCN(c4c(C#N)c(=O)n(C)c5ccccc45)CC3)C2)cc1` [Example 15, 4-[2-(4-methoxyphenyl)-2,8-diazaspiro[4.5]decan-8-yl]-1-methyl-2-oxo-1,2-dihydro-quinoline-3-carbonitrile]: the IC50 worked out at 91 nM.

`Cn1c(=O)c(C#N)c(N2CC3(CCCN(c4ccc(F)cc4)C3)C2)c2ccccc21` [Example 16, 4-[6-(4-fluorophenyl)-2,6-diazaspiro[3.5]nonan-2-yl]-1-methyl-2-oxo-1,2-dihydro-quinoline-3-carbonitrile]: the IC50 came to 15 nM.

For the molecule `Cn1c(=O)c(C#N)c(N2CCC3(CN(c4ccc(OC(F)(F)F)cc4)C3)C2)c2ccccc21` [Example 17, 1-methyl-2-oxo-4-{2-[4-(trifluoromethoxy)phenyl]-2,6-diazaspiro[3.4]octan-6-yl}-1,2-dihydroquinoline-3-carbonitrile], the IC50 amounted to 3.5 nM.

For `Cn1c(=O)c(C#N)c(N2CC3(CCN(c4ccc(OC(F)(F)F)cc4)C3)C2)c2ccccc21` [Example 18, 1-methyl-2-oxo-4-{6-[4-(trifluoromethoxy)phenyl]-2,6-diazaspiro[3.4]octan-2-yl}-1,2-dihydroquinoline-3-carbonitrile], the IC50 turned out to be 19 nM.

With `Cn1c(=O)c(C#N)c(N2CCC3(CCN(c4ccc(OC(F)(F)F)cc4)C3)C2)c2ccccc21` (stereo not drawn) [Example 19, 1-methyl-2-oxo-4-{7-[4-(trifluoromethoxy)phenyl]-2,7-diazaspiro[4.4]nonan-2-yl}-1,2-dihydroquinoline-3-carbonitrile], the IC50 amounted to 122 nM.

On to `COc1cccc(N2CC3(CCN(c4c(C#N)c(=O)n(C)c5ccccc45)C3)C2)c1` [Example 20, 4-[2-(3-methoxyphenyl)-2,6-diazaspiro[3.4]octan-6-yl]-1-methyl-2-oxo-1,2-dihydroquinoline-3-carbonitrile], for which the IC50 turned out to be 155 nM.

For `CN(C)c1ccc(N2CC3(CCN(c4c(C#N)c(=O)n(C)c5ccccc45)C3)C2)cc1` [Example 21, 4-{2-[4-(dimethylamino)phenyl]-2,6-diazaspiro[3.4]octan-6-yl}-1-methyl-2-oxo-1,2-dihydroquinoline-3-carbonitrile], the IC50 was found to be 163 nM.

On to `Cn1c(=O)c(C#N)c(N2CCC3(CN(c4ccc(N5CCCC5=O)cc4)C3)C2)c2ccccc21` [Example 22, 1-methyl-2-oxo-4-{2-[4-(2-oxopyrrolidin-1-yl)phenyl]-2,6-diazaspiro[3.4]octan-6-yl}-1,2-dihydroquinoline-3-carbonitrile], for which the IC50 was found to be 477 nM.

For the molecule `Cn1c(=O)c(C#N)c(N2CCC3(CCN(c4ccc(F)cc4)C3)C2)c2ccccc21` (stereo not drawn) [Example 23, 4-[7-(4-fluorophenyl)-2,7-diazaspiro[4.4]nonan-2-yl]-1-methyl-2-oxo-1,2-dihydro-quinoline-3-carbonitrile], the IC50 amounted to 532 nM.

On to `Cn1c(=O)c(C#N)c(N2CCC3(CN(c4ccc(N5CCOCC5)cc4)C3)C2)c2ccccc21` [Example 24, 1-methyl-4-{2-[4-(morpholin-4-yl)phenyl]-2,6-diazaspiro[3.4]octan-6-yl}-2-oxo-1,2-dihydroquinoline-3-carbonitrile], for which the IC50 was found to be 1700 nM.
